From ChEMBL document CHEMBL4507302, “Data for DCP probe TP-020” (2021)

Tests used:
[1] = tested on: Tyrosine-protein kinase ABL1 (Homo sapiens), P00519 [M351T]; conditions: Compound concentration 1000.0 nM
[2] = biological target: Tyrosine-protein kinase ABL1 (Homo sapiens) (UniProt P00519); conditions: Compound concentration 1000.0 nM
[3] = biological target: Ankyrin repeat and protein kinase domain-containing protein 1 (Homo sapiens) (UniProt Q8NFD2); conditions: Compound concentration 1000.0 nM
[4] = biological target: Serine/threonine-protein kinase BRSK1 (Homo sapiens) (UniProt Q8TDC3); conditions: Compound concentration 1000.0 nM
[5] = biological target: Cyclin-dependent kinase 4 (Homo sapiens) (UniProt P11802); conditions: Compound concentration 1000.0 nM
[6] = biological target: Casein kinase II subunit alpha (Homo sapiens) (UniProt P68400); conditions: Compound concentration 1000.0 nM
[7] = biological target: Dual specificity tyrosine-phosphorylation-regulated kinase 1B (Homo sapiens) (UniProt Q9Y463); conditions: Compound concentration 1000.0 nM
[8] = biological target: Dual specificity tyrosine-phosphorylation-regulated kinase 2 (Homo sapiens) (UniProt Q92630); conditions: Compound concentration 1000.0 nM
[9] = tested on: Epidermal growth factor receptor (Homo sapiens), P00533 [UNDEFINED MUTATION]; conditions: Compound concentration 1000.0 nM
[10] = biological target: Ephrin type-A receptor 2 (Homo sapiens) (UniProt P29317); conditions: Compound concentration 1000.0 nM
[11] = biological target: Mitogen-activated protein kinase 7 (Homo sapiens) (UniProt Q13164); conditions: Compound concentration 1000.0 nM
[12] = biological target: Mitogen-activated protein kinase 15 (Homo sapiens) (UniProt Q8TD08); conditions: Compound concentration 1000.0 nM
[13] = biological target: Serine/threonine-protein kinase/endoribonuclease IRE1 (Homo sapiens) (UniProt O75460); conditions: Compound concentration 1000.0 nM
[14] = tested on: eIF-2-alpha kinase GCN2 (Homo sapiens), Q9P2K8 [S808G]; conditions: Compound concentration 1000.0 nM
[15] = tested on: Mast/stem cell growth factor receptor Kit (Homo sapiens), P10721 [L576P]; conditions: Compound concentration 1000.0 nM
[16] = biological target: Serine/threonine-protein kinase LATS2 (Homo sapiens) (UniProt Q9NRM7); conditions: Compound concentration 1000.0 nM
[17] = biological target: Mitogen-activated protein kinase kinase kinase kinase 4 (Homo sapiens) (UniProt O95819); conditions: Compound concentration 1000.0 nM
[18] = biological target: Dual specificity mitogen-activated protein kinase kinase 4 (Homo sapiens) (UniProt P45985); conditions: Compound concentration 1000.0 nM
[19] = biological target: Serine/threonine-protein kinase mTOR (Homo sapiens) (UniProt P42345); conditions: Compound concentration 1000.0 nM
[20] = biological target: Myosin light chain kinase, smooth muscle (Homo sapiens) (UniProt Q15746); conditions: Compound concentration 1000.0 nM
[21] = biological target: Myosin-IIIa (Homo sapiens) (UniProt Q8NEV4); conditions: Compound concentration 1000.0 nM
[22] = biological target: Serine/threonine-protein kinase PAK 4 (Homo sapiens) (UniProt O96013); conditions: Compound concentration 1000.0 nM
[23] = biological target: Cyclin-dependent kinase 2 homolog (Plasmodium falciparum (isolate 3D7)) (UniProt P61075); conditions: Compound concentration 1000.0 nM
[24] = biological target: Serine/threonine-protein kinase pim-2 (Homo sapiens) (UniProt Q9P1W9); conditions: Compound concentration 1000.0 nM
[25] = biological target: Serine/threonine-protein kinase PknB (Mycobacterium tuberculosis) (UniProt P9WI81); conditions: Compound concentration 1000.0 nM
[26] = biological target: Serine/threonine-protein kinase PLK3 (Homo sapiens) (UniProt Q9H4B4); conditions: Compound concentration 1000.0 nM
[27] = biological target: Serine/threonine-protein kinase D3 (Homo sapiens) (UniProt O94806); conditions: Compound concentration 1000.0 nM
[28] = biological target: Serine/threonine-protein kinase PRP4 homolog (Homo sapiens) (UniProt Q13523); conditions: Compound concentration 1000.0 nM
[29] = biological target: Serine/threonine-protein kinase RIO1 (Homo sapiens) (UniProt Q9BRS2); conditions: Compound concentration 1000.0 nM
[30] = biological target: Serine/threonine-protein kinase RIO2 (Homo sapiens) (UniProt Q9BVS4); conditions: Compound concentration 1000.0 nM
[31] = biological target: Serine/threonine-protein kinase Sgk1 (Homo sapiens) (UniProt O00141); conditions: Compound concentration 1000.0 nM
[32] = biological target: Proto-oncogene tyrosine-protein kinase Src (Homo sapiens) (UniProt P12931); conditions: Compound concentration 1000.0 nM
[33] = biological target: Serine/threonine-protein kinase 16 (Homo sapiens) (UniProt O75716); conditions: Compound concentration 1000.0 nM
[34] = biological target: Serine/threonine-protein kinase tousled-like 2 (Homo sapiens) (UniProt Q86UE8); conditions: Compound concentration 1000.0 nM
[35] = biological target: Serine/threonine-protein kinase TNNI3K (Homo sapiens) (UniProt Q59H18); conditions: Compound concentration 1000.0 nM
[36] = biological target: High affinity nerve growth factor receptor (Homo sapiens) (UniProt P04629); conditions: Compound concentration 1000.0 nM
[37] = biological target: NT-3 growth factor receptor (Homo sapiens) (UniProt Q16288); conditions: Compound concentration 1000.0 nM
[38] = biological target: Tyrosine-protein kinase TXK (Homo sapiens) (UniProt P42681); conditions: Compound concentration 1000.0 nM
[39] = biological target: Non-receptor tyrosine-protein kinase TYK2 (Homo sapiens) (UniProt P29597); conditions: Compound concentration 1000.0 nM
[40] = biological target: Serine/threonine-protein kinase ULK3 (Homo sapiens) (UniProt Q6PHR2); conditions: Compound concentration 1000.0 nM
[41] = biological target: Vascular endothelial growth factor receptor 2 (Homo sapiens) (UniProt P35968); conditions: Compound concentration 1000.0 nM
[42] = biological target: 5-hydroxytryptamine receptor 1D (Homo sapiens, UniProt P28221); conditions: Compound concentration 10.0 uM
[43] = biological target: 5-hydroxytryptamine receptor 1E (Homo sapiens) (UniProt P28566); conditions: Compound concentration 10.0 uM
[44] = biological target: Sodium-dependent noradrenaline transporter (Homo sapiens) (UniProt P23975); conditions: Compound concentration 10.0 uM
[45] = biological target: Alpha-2B adrenergic receptor (Homo sapiens) (UniProt P18089); conditions: Compound concentration 10.0 uM

Sequence of Serine/threonine-protein kinase tousled-like 2 (Homo sapiens) (Q86UE8 whole entry, looked up): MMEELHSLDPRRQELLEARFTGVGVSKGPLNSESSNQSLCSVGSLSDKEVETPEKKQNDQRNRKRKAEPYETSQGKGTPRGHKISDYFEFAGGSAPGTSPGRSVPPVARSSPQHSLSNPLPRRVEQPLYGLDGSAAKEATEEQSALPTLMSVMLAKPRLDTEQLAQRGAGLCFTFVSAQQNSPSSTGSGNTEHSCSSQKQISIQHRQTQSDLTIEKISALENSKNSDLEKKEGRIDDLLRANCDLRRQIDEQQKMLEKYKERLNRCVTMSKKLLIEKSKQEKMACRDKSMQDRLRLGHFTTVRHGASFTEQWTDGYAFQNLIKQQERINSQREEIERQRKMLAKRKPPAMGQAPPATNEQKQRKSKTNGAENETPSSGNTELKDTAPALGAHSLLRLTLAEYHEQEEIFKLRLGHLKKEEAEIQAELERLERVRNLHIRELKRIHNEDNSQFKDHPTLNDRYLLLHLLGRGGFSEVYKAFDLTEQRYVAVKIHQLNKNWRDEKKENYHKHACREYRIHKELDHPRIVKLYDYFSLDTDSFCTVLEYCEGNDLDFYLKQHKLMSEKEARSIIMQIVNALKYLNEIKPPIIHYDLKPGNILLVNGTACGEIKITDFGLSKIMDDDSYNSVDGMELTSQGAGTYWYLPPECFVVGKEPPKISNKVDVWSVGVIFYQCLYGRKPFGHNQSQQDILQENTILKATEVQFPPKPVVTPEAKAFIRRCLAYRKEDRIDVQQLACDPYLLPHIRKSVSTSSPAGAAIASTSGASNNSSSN
Sequence of NT-3 growth factor receptor (Homo sapiens) (Q16288 32-839 limits assumed): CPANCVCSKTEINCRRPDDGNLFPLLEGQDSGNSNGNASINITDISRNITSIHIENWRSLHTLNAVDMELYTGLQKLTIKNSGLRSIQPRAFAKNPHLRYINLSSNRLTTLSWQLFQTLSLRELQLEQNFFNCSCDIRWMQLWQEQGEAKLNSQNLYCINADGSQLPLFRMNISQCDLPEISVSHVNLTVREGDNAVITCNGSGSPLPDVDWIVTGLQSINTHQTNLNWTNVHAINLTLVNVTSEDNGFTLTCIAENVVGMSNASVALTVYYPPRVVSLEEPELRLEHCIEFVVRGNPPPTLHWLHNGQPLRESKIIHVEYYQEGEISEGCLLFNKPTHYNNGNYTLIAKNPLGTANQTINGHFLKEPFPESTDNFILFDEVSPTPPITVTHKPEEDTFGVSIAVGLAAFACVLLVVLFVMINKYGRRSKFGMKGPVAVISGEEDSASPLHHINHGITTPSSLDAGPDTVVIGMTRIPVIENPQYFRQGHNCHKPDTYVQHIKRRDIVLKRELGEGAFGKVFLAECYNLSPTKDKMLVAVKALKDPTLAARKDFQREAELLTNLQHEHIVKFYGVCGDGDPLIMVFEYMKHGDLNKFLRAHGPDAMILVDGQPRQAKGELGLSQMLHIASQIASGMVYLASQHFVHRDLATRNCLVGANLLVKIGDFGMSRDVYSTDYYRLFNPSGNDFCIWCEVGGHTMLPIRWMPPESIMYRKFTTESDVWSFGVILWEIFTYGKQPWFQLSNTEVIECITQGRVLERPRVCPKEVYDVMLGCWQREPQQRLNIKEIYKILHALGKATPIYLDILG
Sequence of Cyclin-dependent kinase 4 (Homo sapiens) (P11802 whole entry): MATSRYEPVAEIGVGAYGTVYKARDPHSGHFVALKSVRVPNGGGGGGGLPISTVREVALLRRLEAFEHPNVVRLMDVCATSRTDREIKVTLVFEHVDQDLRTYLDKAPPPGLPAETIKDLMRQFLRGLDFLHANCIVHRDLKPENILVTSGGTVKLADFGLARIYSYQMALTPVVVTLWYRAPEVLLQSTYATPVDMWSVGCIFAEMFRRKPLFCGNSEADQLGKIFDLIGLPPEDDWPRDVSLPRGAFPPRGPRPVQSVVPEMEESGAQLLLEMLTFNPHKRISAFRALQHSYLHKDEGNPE
Sequence of Mast/stem cell growth factor receptor Kit (Homo sapiens), P10721 [L576P] (P10721 whole entry L576P): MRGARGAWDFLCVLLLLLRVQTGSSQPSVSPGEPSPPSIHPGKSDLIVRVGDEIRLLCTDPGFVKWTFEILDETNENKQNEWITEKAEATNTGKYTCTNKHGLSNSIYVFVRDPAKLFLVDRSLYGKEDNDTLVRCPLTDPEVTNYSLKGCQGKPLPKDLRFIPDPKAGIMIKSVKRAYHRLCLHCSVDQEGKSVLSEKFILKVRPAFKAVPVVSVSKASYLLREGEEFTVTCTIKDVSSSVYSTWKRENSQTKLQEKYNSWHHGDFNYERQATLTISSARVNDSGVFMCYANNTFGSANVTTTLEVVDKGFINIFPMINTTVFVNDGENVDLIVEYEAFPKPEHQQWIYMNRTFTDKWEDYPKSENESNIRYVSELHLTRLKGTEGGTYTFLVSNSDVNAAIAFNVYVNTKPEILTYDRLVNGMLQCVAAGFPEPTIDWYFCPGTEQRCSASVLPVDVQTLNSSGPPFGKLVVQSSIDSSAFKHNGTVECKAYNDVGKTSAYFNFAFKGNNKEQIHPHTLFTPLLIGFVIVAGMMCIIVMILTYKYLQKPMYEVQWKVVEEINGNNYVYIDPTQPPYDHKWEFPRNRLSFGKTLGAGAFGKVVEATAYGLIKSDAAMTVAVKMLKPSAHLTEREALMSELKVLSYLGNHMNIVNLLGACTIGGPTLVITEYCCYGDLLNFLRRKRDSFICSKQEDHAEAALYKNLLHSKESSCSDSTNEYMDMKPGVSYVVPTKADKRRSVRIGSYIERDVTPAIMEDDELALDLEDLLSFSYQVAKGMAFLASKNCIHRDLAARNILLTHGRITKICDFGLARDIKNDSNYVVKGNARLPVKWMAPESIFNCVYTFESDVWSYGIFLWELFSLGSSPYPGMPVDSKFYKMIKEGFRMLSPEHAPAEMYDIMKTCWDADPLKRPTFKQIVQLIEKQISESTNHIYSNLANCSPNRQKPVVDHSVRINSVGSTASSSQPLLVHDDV
Sequence of Serine/threonine-protein kinase LATS2 (Homo sapiens) (Q9NRM7 whole entry): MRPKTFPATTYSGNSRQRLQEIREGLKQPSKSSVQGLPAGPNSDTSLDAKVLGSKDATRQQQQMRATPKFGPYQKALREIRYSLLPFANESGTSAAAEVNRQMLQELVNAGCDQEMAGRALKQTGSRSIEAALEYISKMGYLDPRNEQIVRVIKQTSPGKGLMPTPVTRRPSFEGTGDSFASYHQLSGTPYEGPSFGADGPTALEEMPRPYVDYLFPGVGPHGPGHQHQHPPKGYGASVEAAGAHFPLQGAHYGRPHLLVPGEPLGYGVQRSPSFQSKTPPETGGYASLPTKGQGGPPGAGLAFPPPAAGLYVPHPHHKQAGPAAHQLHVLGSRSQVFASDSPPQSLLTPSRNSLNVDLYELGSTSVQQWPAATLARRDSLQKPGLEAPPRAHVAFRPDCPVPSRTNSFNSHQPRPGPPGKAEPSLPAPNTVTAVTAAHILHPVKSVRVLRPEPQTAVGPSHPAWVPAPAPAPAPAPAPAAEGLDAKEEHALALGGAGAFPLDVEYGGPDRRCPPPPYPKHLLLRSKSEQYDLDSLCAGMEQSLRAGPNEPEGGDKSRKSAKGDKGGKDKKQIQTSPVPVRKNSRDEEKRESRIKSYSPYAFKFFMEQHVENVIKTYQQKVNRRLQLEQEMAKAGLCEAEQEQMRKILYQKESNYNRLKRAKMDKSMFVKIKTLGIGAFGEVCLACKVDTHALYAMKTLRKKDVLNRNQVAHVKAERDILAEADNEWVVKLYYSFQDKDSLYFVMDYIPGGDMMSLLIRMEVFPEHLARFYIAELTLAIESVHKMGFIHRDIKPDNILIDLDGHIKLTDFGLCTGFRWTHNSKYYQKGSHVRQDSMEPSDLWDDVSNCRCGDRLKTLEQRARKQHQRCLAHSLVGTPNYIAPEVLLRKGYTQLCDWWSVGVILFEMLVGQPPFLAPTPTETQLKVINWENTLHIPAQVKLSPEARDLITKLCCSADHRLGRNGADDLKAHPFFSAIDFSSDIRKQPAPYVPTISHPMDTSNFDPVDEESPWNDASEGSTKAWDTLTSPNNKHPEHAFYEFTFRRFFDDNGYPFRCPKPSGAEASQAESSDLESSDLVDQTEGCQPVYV
Sequence of 5-hydroxytryptamine receptor 1E (Homo sapiens) (P28566 whole entry): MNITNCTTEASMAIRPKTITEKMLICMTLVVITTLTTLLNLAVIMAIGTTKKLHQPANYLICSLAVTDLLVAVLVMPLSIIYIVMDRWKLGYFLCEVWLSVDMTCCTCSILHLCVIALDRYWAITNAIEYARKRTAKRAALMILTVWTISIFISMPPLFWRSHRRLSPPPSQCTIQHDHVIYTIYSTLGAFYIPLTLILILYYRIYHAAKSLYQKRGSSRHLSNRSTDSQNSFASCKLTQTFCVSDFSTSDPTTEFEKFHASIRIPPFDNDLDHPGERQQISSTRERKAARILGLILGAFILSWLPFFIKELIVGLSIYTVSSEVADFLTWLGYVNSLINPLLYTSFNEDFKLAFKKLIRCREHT
Sequence of Serine/threonine-protein kinase PLK3 (Homo sapiens) (Q9H4B4 whole entry, looked up): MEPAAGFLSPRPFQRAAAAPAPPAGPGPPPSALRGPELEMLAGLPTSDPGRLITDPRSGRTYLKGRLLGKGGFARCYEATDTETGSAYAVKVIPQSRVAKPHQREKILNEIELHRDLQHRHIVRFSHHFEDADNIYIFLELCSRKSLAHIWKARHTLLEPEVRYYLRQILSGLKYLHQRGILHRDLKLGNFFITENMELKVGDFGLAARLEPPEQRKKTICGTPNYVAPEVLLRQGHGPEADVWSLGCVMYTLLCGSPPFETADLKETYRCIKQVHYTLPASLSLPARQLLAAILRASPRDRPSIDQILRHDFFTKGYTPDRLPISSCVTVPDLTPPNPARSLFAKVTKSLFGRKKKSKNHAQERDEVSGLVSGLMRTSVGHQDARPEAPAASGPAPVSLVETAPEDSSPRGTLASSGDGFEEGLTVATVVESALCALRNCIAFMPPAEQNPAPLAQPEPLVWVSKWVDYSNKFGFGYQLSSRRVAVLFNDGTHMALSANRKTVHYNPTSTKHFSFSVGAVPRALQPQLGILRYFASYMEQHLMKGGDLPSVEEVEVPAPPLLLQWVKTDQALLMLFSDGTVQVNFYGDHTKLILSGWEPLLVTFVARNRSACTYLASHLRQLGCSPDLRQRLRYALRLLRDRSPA

Nc1cnc(N2CCc3cc(S(=O)(=O)Nc4c(F)cc(Cl)cc4F)cc(N4CCCC4=O)c32)nc1
residual activity [1]: 100% | residual activity [2]: 100% | residual activity [3]: 100% | residual activity [4]: 100% | residual activity [5]: 97% | residual activity [6]: 100% | residual activity [7]: 100% | residual activity [8]: 89% | residual activity [9]: 74% | residual activity [10]: 100% | residual activity [11]: 100% | residual activity [12]: 84% | residual activity [13]: 100% | residual activity [14]: 100% | residual activity [15]: 83% | residual activity [16]: 100% | residual activity [17]: 61% | residual activity [18]: 100% | residual activity [19]: 100% | residual activity [20]: 91% | residual activity [21]: 77% | residual activity [22]: 89% | residual activity [23]: 100% | residual activity [24]: 85% | residual activity [25]: 96% | residual activity [26]: 100% | residual activity [27]: 88% | residual activity [28]: 76% | residual activity [29]: 100% | residual activity [30]: 89% | residual activity [31]: 100% | residual activity [32]: 99% | residual activity [33]: 100% | residual activity [34]: 79% | residual activity [35]: 49% | residual activity [36]: 100% | residual activity [37]: 97% | residual activity [38]: 83% | residual activity [39]: 100% | residual activity [40]: 100% | residual activity [41]: 81% | inhibition [42]: 9.24% | inhibition [43]: -4.55% | inhibition [44]: 18.2% | inhibition [45]: 0.99%

Cn1nc(C(F)(F)F)cc1-c1cnc(N2CCc3cc(S(=O)(=O)Nc4c(F)cc(Cl)cc4F)cc(N4CCCC4=O)c32)nc1 [TP-020]
residual activity [1]: 92% | residual activity [2]: 73% | residual activity [3]: 96% | residual activity [4]: 100% | residual activity [5]: 81% | residual activity [6]: 65% | residual activity [7]: 100% | residual activity [8]: 87% | residual activity [9]: 100% | residual activity [10]: 100% | residual activity [11]: 100% | residual activity [12]: 78% | residual activity [13]: 92% | residual activity [14]: 100% | residual activity [15]: 93% | residual activity [16]: 93% | residual activity [17]: 83% | residual activity [18]: 88% | residual activity [19]: 78% | residual activity [20]: 100% | residual activity [21]: 100% | residual activity [22]: 100% | residual activity [23]: 73% | residual activity [24]: 100% | residual activity [25]: 100% | residual activity [26]: 79% | residual activity [27]: 100% | residual activity [28]: 100% | residual activity [29]: 96% | residual activity [30]: 89% | residual activity [31]: 100% | residual activity [32]: 100% | residual activity [33]: 92% | residual activity [34]: 94% | residual activity [35]: 65% | residual activity [36]: 69% | residual activity [37]: 98% | residual activity [38]: 100% | residual activity [39]: 78% | residual activity [40]: 100% | residual activity [41]: 87% | inhibition [42]: 55.3% | inhibition [43]: 14.8% | inhibition [44]: 5.69% | inhibition [45]: 18.5%
